Results as given in ChEMBL document CHEMBL4184267, “Novel naftopidil derivatives containing methyl phenylacetate and their blocking effects on α1D/1A-adrenoreceptor subtypes” (Bioorg Med Chem Lett, 2018).

Legend:
Thoracic aorta [1] = assay: Vasodilatory activity in New Zealand White rabbit thoracic aorta assessed as relaxation of (-)-noradrenaline-induced contractile response at 0.1 uM relative to untreated control; type: functional, Oryctolagus cuniculus; design: scale not given: the % may be the effect or the level left
Thoracic aorta [2] = assay: Vasodilatory activity in New Zealand White rabbit thoracic aorta assessed as relaxation of (-)-noradrenaline-induced contractile response at 1 uM relative to untreated control; type: functional, Oryctolagus cuniculus; design: scale not given: the % may be the effect or the level left
Thoracic aorta [3] = assay: Vasodilatory activity in New Zealand White rabbit thoracic aorta assessed as relaxation of (-)-noradrenaline-induced contractile response at 10 uM relative to untreated control; type: functional, Oryctolagus cuniculus; design: scale not given: the % may be the effect or the level left
[4] = target: T1, Alpha-1A adrenergic receptor (Rattus norvegicus, UniProt P43140); assay: Antagonist activity at alpha1A-adrenoreceptor in Sprague-Dawley rat vas deferens assessed as relaxation of (-)-noradrenaline-induced contractile response; type: functional; details: read-out: pA2 (converted)
T1 sequence (P43140 whole entry): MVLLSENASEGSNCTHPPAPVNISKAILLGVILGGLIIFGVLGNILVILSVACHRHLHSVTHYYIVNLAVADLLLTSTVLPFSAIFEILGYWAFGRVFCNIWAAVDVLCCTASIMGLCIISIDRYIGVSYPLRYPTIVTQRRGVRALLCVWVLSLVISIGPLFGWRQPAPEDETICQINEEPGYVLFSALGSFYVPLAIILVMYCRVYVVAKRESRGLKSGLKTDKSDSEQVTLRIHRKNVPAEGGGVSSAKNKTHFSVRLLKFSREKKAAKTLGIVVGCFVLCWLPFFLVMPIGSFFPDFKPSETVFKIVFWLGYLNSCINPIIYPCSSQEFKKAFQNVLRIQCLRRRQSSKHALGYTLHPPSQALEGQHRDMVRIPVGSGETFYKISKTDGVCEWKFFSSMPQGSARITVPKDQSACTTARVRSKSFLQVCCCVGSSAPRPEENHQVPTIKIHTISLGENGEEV

[5] = target: T2, Alpha-1B adrenergic receptor (Rattus norvegicus, UniProt P15823); assay: Antagonist activity at alpha1B-adrenoreceptor in Sprague-Dawley rat spleen assessed as relaxation of (-)-noradrenaline-induced contractile response; type: functional; details: read-out: pA2 (converted)
T2 sequence (P15823 whole entry): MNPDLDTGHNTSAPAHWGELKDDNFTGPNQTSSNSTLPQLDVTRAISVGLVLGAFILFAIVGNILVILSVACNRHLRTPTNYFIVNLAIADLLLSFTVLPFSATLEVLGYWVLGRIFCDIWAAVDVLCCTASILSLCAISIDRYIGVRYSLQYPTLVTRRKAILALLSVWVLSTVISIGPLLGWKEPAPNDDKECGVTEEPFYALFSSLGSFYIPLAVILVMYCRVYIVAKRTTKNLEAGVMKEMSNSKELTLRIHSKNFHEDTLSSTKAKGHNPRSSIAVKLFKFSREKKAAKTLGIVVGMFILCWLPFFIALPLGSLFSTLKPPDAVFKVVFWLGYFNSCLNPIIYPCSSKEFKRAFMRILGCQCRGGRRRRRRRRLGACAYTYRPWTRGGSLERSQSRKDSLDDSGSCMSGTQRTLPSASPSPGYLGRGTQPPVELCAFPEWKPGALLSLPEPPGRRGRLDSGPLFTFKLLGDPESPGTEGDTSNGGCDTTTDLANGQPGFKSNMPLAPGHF

[6] = target: T3, Alpha-1D adrenergic receptor (Rattus norvegicus, UniProt P23944); assay: Antagonist activity at alpha1D-adrenoreceptor in Sprague-Dawley rat thoracic aorta assessed as relaxation of (-)-noradrenaline-induced contractile response; type: functional; details: read-out: pA2 (converted)
T3 sequence (P23944 whole entry): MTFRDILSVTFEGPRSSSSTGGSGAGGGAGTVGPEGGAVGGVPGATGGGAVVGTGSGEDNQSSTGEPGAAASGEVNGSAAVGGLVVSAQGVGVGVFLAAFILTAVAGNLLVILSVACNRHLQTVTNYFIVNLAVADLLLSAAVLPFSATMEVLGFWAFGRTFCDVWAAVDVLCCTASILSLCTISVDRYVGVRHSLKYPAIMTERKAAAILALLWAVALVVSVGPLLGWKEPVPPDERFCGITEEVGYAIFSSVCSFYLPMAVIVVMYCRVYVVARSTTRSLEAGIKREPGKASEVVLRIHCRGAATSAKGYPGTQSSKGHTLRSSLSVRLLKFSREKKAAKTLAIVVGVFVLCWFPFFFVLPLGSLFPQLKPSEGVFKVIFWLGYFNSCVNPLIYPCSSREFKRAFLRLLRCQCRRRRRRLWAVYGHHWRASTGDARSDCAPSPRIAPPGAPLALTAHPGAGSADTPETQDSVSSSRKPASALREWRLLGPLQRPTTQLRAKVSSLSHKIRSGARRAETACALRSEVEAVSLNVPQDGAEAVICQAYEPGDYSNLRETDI

[7] = target: T4, Alpha-1B adrenergic receptor (Homo sapiens, UniProt P35368); assay: Displacement of [125I-HEAT from human alpha1B-adrenoreceptor expressed in CHOK1 cell membranes incubated for 60 mins
T4 sequence (P35368 whole entry): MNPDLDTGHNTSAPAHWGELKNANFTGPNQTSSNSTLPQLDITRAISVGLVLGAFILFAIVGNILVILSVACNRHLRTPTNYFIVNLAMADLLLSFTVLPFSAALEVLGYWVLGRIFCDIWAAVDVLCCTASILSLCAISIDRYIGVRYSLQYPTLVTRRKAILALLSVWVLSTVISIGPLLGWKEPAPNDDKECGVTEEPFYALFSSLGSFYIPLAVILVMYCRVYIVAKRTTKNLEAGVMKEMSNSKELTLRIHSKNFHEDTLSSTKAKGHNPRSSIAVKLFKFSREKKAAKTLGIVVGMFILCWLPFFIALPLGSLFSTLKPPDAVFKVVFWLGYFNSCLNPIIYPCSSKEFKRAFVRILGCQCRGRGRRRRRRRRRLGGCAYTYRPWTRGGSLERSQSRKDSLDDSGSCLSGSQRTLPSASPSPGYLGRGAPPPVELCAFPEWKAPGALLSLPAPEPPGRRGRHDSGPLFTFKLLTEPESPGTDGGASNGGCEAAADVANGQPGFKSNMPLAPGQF

[8] = target: T5, Alpha-1D adrenergic receptor (Homo sapiens, UniProt P25100); assay: Displacement of [125I-HEAT from human alpha1D-adrenoreceptor expressed in CHOK1 cell membranes incubated for 60 mins
T5 sequence (P25100 whole entry): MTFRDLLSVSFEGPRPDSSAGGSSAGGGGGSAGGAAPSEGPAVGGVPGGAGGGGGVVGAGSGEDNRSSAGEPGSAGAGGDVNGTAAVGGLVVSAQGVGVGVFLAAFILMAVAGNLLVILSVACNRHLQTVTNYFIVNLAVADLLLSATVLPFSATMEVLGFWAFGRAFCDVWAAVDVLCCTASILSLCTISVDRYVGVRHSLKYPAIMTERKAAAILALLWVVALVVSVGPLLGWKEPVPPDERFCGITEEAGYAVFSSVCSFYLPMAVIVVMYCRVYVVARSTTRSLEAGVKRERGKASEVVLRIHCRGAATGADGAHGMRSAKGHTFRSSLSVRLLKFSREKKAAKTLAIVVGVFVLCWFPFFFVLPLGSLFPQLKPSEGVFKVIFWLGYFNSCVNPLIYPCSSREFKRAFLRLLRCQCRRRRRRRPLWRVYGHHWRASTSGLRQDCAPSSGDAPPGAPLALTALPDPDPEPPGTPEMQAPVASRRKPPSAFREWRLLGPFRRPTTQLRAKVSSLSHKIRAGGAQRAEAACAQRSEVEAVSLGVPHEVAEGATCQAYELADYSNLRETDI

SMILES | Activity (Thoracic aorta [1]) [%] | Activity (Thoracic aorta [2]) [%] | Activity (Thoracic aorta [3]) [%] | Kb [4] [nM] | Kb [5] [nM] | Kb [6] [nM] | Ki [7] [nM] | Ki [8] [nM]
COC(=O)Cc1ccc(OCC(O)CN2CCN(c3cc(C)cc(C)c3)CC2)cc1 (stereo not drawn) | 5.8 | 18.6 | 61.4 |  |  |  |  | 
COC(=O)Cc1ccc(OCC(O)CN2CCN(c3ccc(Br)cc3)CC2)cc1 (stereo not drawn) | 7.9 | 16.6 | 43.5 |  |  |  |  | 
COC(=O)Cc1ccc(OCC(O)CN2CCN(c3cccc(C)c3C)CC2)cc1 (stereo not drawn) | 12.5 | 43.3 | 81.7 |  |  |  |  | 
COC(=O)Cc1ccc(OC[C@@H](O)CN2CCN(c3cc(C)ccc3C)CC2)cc1 |  |  |  | 30.2 | 269 | 15.5 |  | 
COC(=O)Cc1ccc(OC[C@H](O)CN2CCN(c3cc(C)ccc3C)CC2)cc1 |  |  |  | 63.1 | 447 | 38 |  | 
COc1ccccc1N1CCN(CC(O)COc2cccc3ccccc23)CC1 (stereo not drawn) [NAFTOPIDIL] | 25.1 | 86.9 | 97.8 |  |  |  | 20 | 1.2
COC(=O)Cc1ccc(OCC(O)CN2CCN(c3cc(C)ccc3C)CC2)cc1 (stereo not drawn) | 24.3 | 66.2 | 100 | 38.9 | 759 | 44.7 |  | 
COC(=O)Cc1ccc(OCC(O)CN2CCN(c3ccc(C)c(Cl)c3)CC2)cc1 (stereo not drawn) | 19.5 | 25.9 | 38.7 |  |  |  |  | 
COC(=O)Cc1ccc(OCC(O)CN2CCN(c3ccc(OC)cc3)CC2)cc1 (stereo not drawn) | 6.3 | 7 | 15.8 |  |  |  |  | 
COC(=O)Cc1ccc(OCC(O)CN2CCN(c3cc(Cl)c(OC)cc3OC)CC2)cc1 (stereo not drawn) | 8.2 | 20.4 | 46.1 |  |  |  |  | 
COC(=O)Cc1ccc(OCC(O)CN2CCN(c3ccc(C)c(C)c3)CC2)cc1 (stereo not drawn) | 8.9 | 28.4 | 70.2 |  |  |  |  | 
COC(=O)Cc1ccc(OCC(O)CN2CCN(c3ccc(C)cc3)CC2)cc1 (stereo not drawn) | 15.3 | 28.7 | 56.7 |  |  |  |  | 
COC(=O)Cc1ccc(OCC(O)CN2CCN(c3ccccc3C)CC2)cc1 (stereo not drawn) | 27.3 | 62.3 | 99.3 | 490 | 324 | 20 |  | 
CCOc1cccc(N2CCN(CC(O)COc3ccc(CC(=O)OC)cc3)CC2)c1 (stereo not drawn) | 6.1 | 10.2 | 14.9 |  |  |  |  | 
COC(=O)Cc1ccc(OCC(O)CN2CCN(c3cccc(C)c3)CC2)cc1 (stereo not drawn) | 14.8 | 36.9 | 63.5 |  |  |  |  | 
COC(=O)Cc1ccc(OCC(O)CN2CCN(c3ccc(C)cc3C)CC2)cc1 (stereo not drawn) | 13.7 | 43.3 | 92.7 |  |  |  |  | 
COC(=O)Cc1ccc(OCC(O)CN2CCN(c3ccccc3Cl)CC2)cc1 (stereo not drawn) | 29 | 58.7 | 98.3 |  |  |  |  | 
COC(=O)Cc1ccc(OCC(O)CN2CCN(c3ccccc3OC)CC2)cc1 (stereo not drawn) | 27.6 | 71.1 | 100 | 148 | 603 | 77.6 |  | 
COC(=O)Cc1ccc(OCC(O)CN2CCN(c3cccc(OC)c3)CC2)cc1 (stereo not drawn) | 13 | 23.7 | 39.8 |  |  |  |  | 
